Measurements taken from patent publication US20240317752A1, “6-SUBSTITUTED-9H-PURINE DERIVATIVES AND RELATED USES” (Black Diamond Therapeutics, Inc., priority 2021, published 2024).

Target: T1, BaF3 BRAF-KIAA1549 fusion cells (Homo sapiens, UniProt P15056)
T1 construct: The BRAF-KIAA1549 fusion mutant was subcloned into pMXs-IRES-Blasticidin (RTV-016, Cell Biolabs, San Diego, CA); fused on or other part: Q9HCM3 (UPF0606 protein KIAA1549)
Test: BaF3 BRAF-KIAA1549 fusion cell proliferation assay (CellTiterGlo)
Type: cell-based
Details: 96 hours incubation, potency code
Protocol: Retroviral Production: The BRAF-KIAA1549 fusion mutant was subcloned into pMXs-IRES-Blasticidin (RTV-016, Cell Biolabs, San Diego, CA). Retrovirus was produced by transfection of HEK 293T cells with the retroviral BRAF mutant expression vector pMXs-IRES-Blasticidin (RTV-016, Cell Biolabs), pCMV-Gag-Pol vector and pCMV-VSV-G-Envelope vector. Briefly, HEK 293T cells were plated in Poly-D-lysine coated 6-well plate (2.5×10^5 cells per well) and incubated overnight. The next day, retroviral plasmids (1 μg of BRAF-KIAA fusion mutant, 0.32 μg of pCMV-Gag-Pol and 0.165 μg pCMV-VSV-G) were mixed in 300 μL of Optimem (31985, Life Technologies). The mixture was incubated at room temperature for 5 minutes and then added to Optimem containing transfection reagent Lipofectamine (11668, Invitrogen) and incubated for 20 minutes. The mixture was then added dropwise to HEK 293T cells. The next day the medium was replaced with fresh culture medium and retrovirus was harvested at 24 hours.
Generation of BRAF-KIAA1549 fusion stable cell line: BaF3 cells were plated in V-bottom 96 well plate (COSTAR #3894) in 80 μL of RPMI/10% FBS and 0.01 ng/ml mouse IL-3; supplemented with 8 μg/mL polybrene (4×10^4 cells/well). Cells were transduced with 20 μL of BRAF-KIAA1549 fusion viral supernatant by centrifuging for 30 minutes at 1000 rpm. Cells were placed in a 37° C. incubator overnight. Next day 100 μL of RPMI/10% FBS and 0.01 ng/ml mouse IL-3 was added. After 24 hours, 100 μL of cells were transferred to a 24 well plate containing 900 μL of RPMI/10% FBS and 15 μg/mL Blasticidin. Contents of the 24 well plate were sampled for cell viability via CellTiterGlo (Promega) over a 2-week period.
Assay for cell proliferation: BaF3 BRAF-KIAA1549 fusion cells were resuspended at 1.5×10^5c/mL in RPMI containing 10% Heat Inactivated FBS, 1% L-glutamine and dispensed in duplicate ([…]) into 384 well plates. To determine the effect of compound on cell proliferation, BaF3 BRAF-KIAA1549 fusion cells were incubated for 96 hours in the presence of vehicle control (DMSO) or compound at varying concentrations. Inhibition of cell growth was determined by luminescent quantification (Envision by Perkin Elmer) of intracellular ATP content using CellTiterGlo (Promega), according to the protocol provided by the manufacturer. To determine the IC50 values, the vehicle-treated cells were normalized as viable cells and analyzed using the CDD Vault, Collaborative Drug Discovery, Burlingame, CA (the Levenberg-Marquardt algorithm; Levenberg, K., […]; Marquardt, D., 1963).
Tables A1 and A2 assign each compound a code for potency in the BaF3 BRAF-KIAA1549 fusion cell proliferation assay: A, B, C, or D. According to the code, A represents an IC50 value <20 nM; B represents an IC50 value ≥20 nM and <100 nM; C represents an IC50 value ≥100 nM and <500 nM; and D represents an IC50 value ≥500 nM.

T1 sequence (P15056 whole entry, change not shown, the tested form may be a part): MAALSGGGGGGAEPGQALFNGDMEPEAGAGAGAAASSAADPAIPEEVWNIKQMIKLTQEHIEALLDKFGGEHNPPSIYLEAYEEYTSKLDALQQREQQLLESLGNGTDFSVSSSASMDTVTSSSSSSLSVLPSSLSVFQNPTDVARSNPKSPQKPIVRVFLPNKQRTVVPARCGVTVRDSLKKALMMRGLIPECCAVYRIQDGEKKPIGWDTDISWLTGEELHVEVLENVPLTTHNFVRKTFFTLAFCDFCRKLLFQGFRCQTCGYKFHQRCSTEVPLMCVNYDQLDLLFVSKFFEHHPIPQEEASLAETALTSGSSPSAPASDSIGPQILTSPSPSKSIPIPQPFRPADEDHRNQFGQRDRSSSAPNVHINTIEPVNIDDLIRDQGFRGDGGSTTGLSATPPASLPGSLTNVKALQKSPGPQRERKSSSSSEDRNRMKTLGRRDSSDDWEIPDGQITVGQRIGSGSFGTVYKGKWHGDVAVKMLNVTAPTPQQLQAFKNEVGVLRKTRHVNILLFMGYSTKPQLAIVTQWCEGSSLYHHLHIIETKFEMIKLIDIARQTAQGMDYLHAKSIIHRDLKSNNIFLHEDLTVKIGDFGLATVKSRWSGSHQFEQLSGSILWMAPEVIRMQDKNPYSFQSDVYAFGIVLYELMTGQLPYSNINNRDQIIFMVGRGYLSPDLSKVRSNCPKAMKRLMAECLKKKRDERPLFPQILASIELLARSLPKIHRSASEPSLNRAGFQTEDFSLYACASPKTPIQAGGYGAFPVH

Row | SMILES | GI50
1 | O=C(Nc1ccc(Cl)c(Nc2ncccc2-c2ncnc3[nH]cnc23)c1)c1cc(C(F)(F)F)ccn1 [Compound I-21, N-(3-(3-(9H-purin-6-yl)pyridin-2-ylamino)-4-chlorophenyl)-4-(trifluoromethyl)picolinamide] | 20 to 100 nM
2 | Cc1ccc(NC(=O)c2ccc(Cl)c(C#N)c2)cc1Nc1ncccc1-c1ncnc2[nH]cnc12 [Compound I-22, N-(3-((3-(9H-purin-6-yl)pyridin-2-yl)amino)-4-methylphenyl)-4-chloro-3-cyanobenzamide] | < 20 nM
3 | Cc1ccc(NC(=O)c2ccc(C#N)cc2)cc1Nc1ncccc1-c1ncnc2[nH]cnc12 [Compound I-26, N-(3-((3-(9H-purin-6-yl)pyridin-2-yl)amino)-4-methylphenyl)-4-cyanobenzamide] | 100 to 500 nM
4 | Cc1ccc(C(=O)Nc2ccc(C)c(Nc3ncccc3-c3ncnc4[nH]cnc34)c2)cc1 [Compound I-27, N-(3-((3-(9H-purin-6-yl)pyridin-2-yl)amino)-4-methylphenyl)-4-methylbenzamide] | 20 to 100 nM
5 | Cc1ccc(NC(=O)C23CC(Cl)(C2)C3)cc1Nc1ncccc1-c1ncnc2[nH]cnc12 [Compound I-28, N-(3-(3-(9H-purin-6-yl)pyridin-2-ylamino)-4-methylphenyl)-3-chlorobicyclo[1.1.1]pentane-1-carboxamide] | ≥ 500 nM
6 | Cc1c(F)cc(NC(=O)c2cc(C(F)(F)F)ccn2)cc1Nc1ncccc1-c1ncnc2[nH]cnc12 [Compound I-29, N-(3-(3-(9H-purin-6-yl)pyridin-2-ylamino)-5-fluoro-4-methylphenyl)-4-(trifluoromethyl)picolinamide] | 20 to 100 nM
7 | Cc1ccc(C(=O)Nc2cncc(C(F)(F)F)c2)cc1Nc1ncccc1-c1ncnc2[nH]cnc12 [Compound I-30, 3-((3-(9H-purin-6-yl)pyridin-2-yl)amino)-4-methyl-N-(5-(trifluoromethyl)pyridin-3-yl)benzamide] | < 20 nM
8 | C#Cc1ccc(C(=O)Nc2ccc(C)c(Nc3ncccc3-c3ncnc4[nH]cnc34)c2)cc1 [Compound I-31, N-(3-((3-(9H-purin-6-yl)pyridin-2-yl)amino)-4-methylphenyl)-4-ethynylbenzamide] | < 20 nM
9 | Cc1ccc(NC(=O)c2ccnc(C3COC3)c2)cc1Nc1ncccc1-c1ncnc2[nH]cnc12 [Compound I-32, N-(3-((3-(9H-purin-6-yl)pyridin-2-yl)amino)-4-methylphenyl)-2-(oxetan-3-yl)isonicotinamide] | < 20 nM
10 | Cc1ccc(NC(=O)c2ccc(C(F)(F)F)c(Cl)c2)cc1Nc1ncccc1-c1ncnc2[nH]cnc12 [Compound I-33, N-(3-((3-(9H-purin-6-yl)pyridin-2-yl)amino)-4-methylphenyl)-3-chloro-4-(trifluoromethyl)benzamide] | 20 to 100 nM
11 | Cc1ccc(C(=O)Nc2cc(C(F)(F)F)ccn2)cc1Nc1ncccc1-c1ncnc2[nH]cnc12 [Compound I-34, 3-((3-(9H-purin-6-yl)pyridin-2-yl)amino)-4-methyl-N-(4-(trifluoromethyl)pyridin-2-yl)benzamide] | 20 to 100 nM
12 | Cc1ccc(C(=O)Nc2ccnc(C(F)(F)F)c2)cc1Nc1ncccc1-c1ncnc2[nH]cnc12 [Compound I-35, 3-((3-(9H-purin-6-yl)pyridin-2-yl)amino)-4-methyl-N-(2-(trifluoromethyl)pyridin-4-yl)benzamide] | 20 to 100 nM
13 | C#Cc1cc(C(=O)Nc2ccc(C)c(Nc3ncccc3-c3ncnc4[nH]cnc34)c2)ccc1Cl [Compound I-36, N-(3-((3-(9H-purin-6-yl)pyridin-2-yl)amino)-4-methylphenyl)-4-chloro-3-ethynylbenzamide] | < 20 nM
14 | Cc1ccc(NC(=O)c2ccc(Cl)c(C(C)(C)C#N)c2)cc1Nc1ncccc1-c1ncnc2[nH]cnc12 [Compound I-37, N-(3-((3-(9H-purin-6-yl)pyridin-2-yl)amino)-4-methylphenyl)-4-chloro-3-(2-cyanopropan-2-yl)benzamide] | 20 to 100 nM
15 | Cc1ccc(NC(=O)c2ccc(Cl)c(C3(C#N)CC3)c2)cc1Nc1ncccc1-c1ncnc2[nH]cnc12 [Compound I-38, N-(3-((3-(9H-purin-6-yl)pyridin-2-yl)amino)-4-methylphenyl)-4-chloro-3-(1-cyanocyclopropyl)benzamide] | 20 to 100 nM
16 | Cc1ccc(NC(=O)c2cc(C#N)c(Cl)cn2)cc1Nc1ncccc1-c1ncnc2[nH]cnc12 [Compound I-39, N-(3-((3-(9H-purin-6-yl)pyridin-2-yl)amino)-4-methylphenyl)-5-chloro-4-cyanopicolinamide] | ≥ 500 nM
17 | Cc1ncc(NC(=O)c2ccc(Cl)c(C#N)c2)cc1Nc1ncccc1-c1ncnc2[nH]cnc12 [Compound I-40, N-(5-((3-(9H-purin-6-yl)pyridin-2-yl)amino)-6-methylpyridin-3-yl)-4-chloro-3-cyanobenzamide] | ≥ 500 nM
18 | COc1cc(C(=O)Nc2ccc(C)c(Nc3ncccc3-c3ncnc4[nH]cnc34)c2)ccc1Cl [Compound I-41, N-(3-((3-(9H-purin-6-yl)pyridin-2-yl)amino)-4-methylphenyl)-4-chloro-3-methoxybenzamide] | < 20 nM
19 | Cc1ccc(NC(=O)c2ccc(C(F)(F)F)c(C#N)c2)cc1Nc1ncccc1-c1ncnc2[nH]cnc12 [Compound I-42, N-(3-((3-(9H-purin-6-yl)pyridin-2-yl)amino)-4-methylphenyl)-3-cyano-4-(trifluoromethyl)benzamide] | < 20 nM
20 | Cc1ccc(C(=O)Nc2ccc(C)c(Nc3ncccc3-c3ncnc4[nH]cnc34)c2)cc1C#N [Compound I-43, N-(3-((3-(9H-purin-6-yl)pyridin-2-yl)amino)-4-methylphenyl)-3-cyano-4-methylbenzamide] | < 20 nM
21 | Cc1ccc(NC(=O)CC2CCCC(C(F)(F)F)C2)cc1Nc1ncccc1-c1ncnc2[nH]cnc12 (stereo not shown) [Compound I-47, N-(3-((3-(9H-purin-6-yl)pyridin-2-yl)amino)-4-methylphenyl)-2-(3-(trifluoromethyl)cyclohexyl)acetamide] | < 20 nM
22 | Cc1ccc(NC(=O)c2cnc(C)c(C#N)c2)cc1Nc1ncccc1-c1ncnc2[nH]cnc12 [Compound I-48, N-(3-(3-(9H-purin-6-yl)pyridin-2-ylamino)-4-methylphenyl)-5-cyano-6-methylnicotinamide] | ≥ 500 nM
23 | Cc1ccc(NC(=O)c2ccc(Cl)c(Cl)c2)cc1Nc1ncccc1-c1ncnc2[nH]cnc12 [Compound I-49, N-(3-(3-(9H-purin-6-yl)pyridin-2-ylamino)-4-methylphenyl)-3,4-dichlorobenzamide] | < 20 nM
24 | N#Cc1cc(C(=O)Nc2ccc(F)c(Nc3ncccc3-c3ncnc4[nH]cnc34)c2)ccc1Cl [Compound I-50, N-(3-(3-(9H-purin-6-yl)pyridin-2-ylamino)-4-fluorophenyl)-4-chloro-3-cyanobenzamide] | 20 to 100 nM
25 | Cc1ccc(NC(=O)c2ccc(C)c(C#N)n2)cc1Nc1ncccc1-c1ncnc2[nH]cnc12 [Compound I-51, N-(3-(3-(9H-purin-6-yl)pyridin-2-ylamino)-4-methylphenyl)-6-cyano-5-methylpicolinamide] | ≥ 500 nM
26 | Cc1ncc(C(=O)Nc2cccc(C(F)(F)F)c2)cc1Nc1ncccc1-c1ncnc2[nH]cnc12 [Compound I-52, 5-((3-(9H-purin-6-yl)pyridin-2-yl)amino)-6-methyl-N-(3-(trifluoromethyl)phenyl)nicotinamide] | 20 to 100 nM
27 | Cc1c(F)cc(C(=O)Nc2cccc(C(F)(F)F)c2)cc1Nc1ncccc1-c1ncnc2[nH]cnc12 [Compound I-53, 3-((3-(9H-purin-6-yl)pyridin-2-yl)amino)-5-fluoro-4-methyl-N-(3-(trifluoromethyl)phenyl)benzamide] | 20 to 100 nM
28 | Cc1ncc(NC(=O)c2ccnc(C3(C#N)CC3)c2)cc1Nc1ncccc1-c1ncnc2[nH]cnc12 [Compound I-54, N-(5-(3-(9H-purin-6-yl)pyridin-2-ylamino)-6-methylpyridin-3-yl)-2-(1-cyanocyclopropyl)isonicotinamide] | 20 to 100 nM
